{
  "source": "patent US11944624B2",
  "about": "“Peptide and small molecule agonists of EphA and their uses” (CASE WESTERN RESERVE UNIVERSITY, priority 2017, dated 2024)",
  "key": {"endogenous EphB4": {"target": "T1, endogenous EphB4 (Homo sapiens, UniProt P54760)", "T1 construct": "host or cells: HEK 293 (vector control)", "T1 sequence (P54760 16-987)": "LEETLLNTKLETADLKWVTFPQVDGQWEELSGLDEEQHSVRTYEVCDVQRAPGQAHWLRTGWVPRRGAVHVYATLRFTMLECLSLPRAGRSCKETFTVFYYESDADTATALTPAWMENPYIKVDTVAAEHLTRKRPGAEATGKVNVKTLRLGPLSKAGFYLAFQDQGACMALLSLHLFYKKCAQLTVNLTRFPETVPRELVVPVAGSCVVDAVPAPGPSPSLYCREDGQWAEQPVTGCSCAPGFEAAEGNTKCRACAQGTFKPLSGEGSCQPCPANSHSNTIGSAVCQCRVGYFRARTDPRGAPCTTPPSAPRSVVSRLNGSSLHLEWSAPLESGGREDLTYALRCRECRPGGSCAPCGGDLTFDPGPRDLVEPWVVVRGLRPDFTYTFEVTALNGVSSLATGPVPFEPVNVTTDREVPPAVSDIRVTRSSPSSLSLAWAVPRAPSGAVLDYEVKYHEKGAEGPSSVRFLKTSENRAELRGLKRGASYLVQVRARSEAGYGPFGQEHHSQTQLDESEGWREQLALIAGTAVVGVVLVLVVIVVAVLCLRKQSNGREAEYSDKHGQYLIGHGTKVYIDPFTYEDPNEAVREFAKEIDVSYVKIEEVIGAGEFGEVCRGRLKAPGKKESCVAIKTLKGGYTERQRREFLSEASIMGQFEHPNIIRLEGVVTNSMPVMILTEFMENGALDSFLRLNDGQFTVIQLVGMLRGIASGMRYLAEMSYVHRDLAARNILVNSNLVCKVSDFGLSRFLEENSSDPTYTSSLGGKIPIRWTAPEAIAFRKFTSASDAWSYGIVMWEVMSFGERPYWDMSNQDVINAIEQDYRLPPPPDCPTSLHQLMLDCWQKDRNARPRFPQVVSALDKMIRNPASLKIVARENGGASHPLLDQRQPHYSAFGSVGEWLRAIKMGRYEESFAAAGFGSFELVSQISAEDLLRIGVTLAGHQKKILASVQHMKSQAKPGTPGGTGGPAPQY", "test": "Endogenous EphB4 activation in HEK 293 vector control cells", "type": "cell-based", "procedure": "Cells were plated in 24-well dishes at a density of 100,000 cells/well and grown for 24 hours prior to stimulation with appropriate compounds and ephrins for the given amounts of time. Compounds were prepared in DMSO at 500 times the final concentrations and 0.2% DMSO was used as vehicle control. Following treatment, cells were lysed directly in SDS Gel Loading Buffer and immunoblotted as described previously. […] For immunoprecipitation, 300,000 cells/well were plated in 6-well dishes and lysed in modified RIPA Buffer (20 mM Tris-HCl pH 7.4, 20 mM NaF, 150 mM NaCl, 10% glycerol, 0.1% SDS, 0.5% DCA, 2 mM EDTA, 1% Triton X-100) following treatment. Either 10 μg of ephrin-A1-Fc, or 4 mg of EphA2 mouse monoclonal antibody (Clone D7, Millipore) were used, and mouse IgG was used as a negative control for EphA2 IP. […] For this purpose, HEK 293 cell lines overexpressing EphA1, EphA2, EphA3, EphA4, and EphB3 kinases were utilized."}, "PC3-DAB2IP KD cells": {"test_system": "PC3-DAB2IP KD cells", "test": "Haptotactic cell migration toward fibronectin, PC3-DAB2IP KD", "type": "cell-based, human", "details": "4 hours", "text": "One of the well-established functions of Eph receptors is the ligand-dependent repulsive guidance of cell migration. As a ligand-mimicking agonist for EphA2, doxazosin is expected to activate EphA2 on tumor cells and repulse migrating tumor cells in vitro. To test this possibility, we first investigated the effects of doxazosin on integrin-mediated haptotactic cell migration toward fibronectin in a modified Boyden chamber cell migration assay. […] The inhibitory effects were observed when doxazosin was presented either in the bottom chamber, or in both top and bottom chambers in the Transwell assay system. […] Therefore, doxazosin can recapitulate a key function attributed to its native ligands, i.e., negative regulation of cell migration."}, "[1]": {"target": "T2, rat α1a adrenergic receptor (Rattus norvegicus, UniProt P43140)", "T2 construct": "Eurofins Panlabs Taiwan, Ltd. (contract assay)", "T2 sequence (P43140 1-466)": "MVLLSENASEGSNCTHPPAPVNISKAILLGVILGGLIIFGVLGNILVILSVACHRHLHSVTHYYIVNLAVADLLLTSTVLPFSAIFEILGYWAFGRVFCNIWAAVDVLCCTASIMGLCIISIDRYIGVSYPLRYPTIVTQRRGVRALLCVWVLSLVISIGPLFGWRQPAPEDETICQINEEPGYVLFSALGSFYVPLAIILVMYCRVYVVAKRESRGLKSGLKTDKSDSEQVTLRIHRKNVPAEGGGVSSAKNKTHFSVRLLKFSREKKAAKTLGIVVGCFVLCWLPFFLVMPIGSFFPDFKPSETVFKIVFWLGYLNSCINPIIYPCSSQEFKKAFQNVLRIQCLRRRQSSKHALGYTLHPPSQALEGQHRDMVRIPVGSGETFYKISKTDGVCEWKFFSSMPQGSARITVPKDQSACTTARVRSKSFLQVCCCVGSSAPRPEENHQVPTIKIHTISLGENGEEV", "test": "Adrenoceptor binding, [3H]-prazosin competition", "details": "[3H]-prazosin 0.25 nM, triplicate, mean±SD; read-out: IC50, α-adrenoceptor binding", "method": "Analysis of Doxazosin and analog binding to rat α1a adrenergic receptor was performed by Eurofins Panlabs Taiwan, Ltd. (Taiwan). [^3H]-prazosin at 0.25 nM was used as the radioligand. […] Non-specific binding was defined by use of 10 μM phentolamine. Incubations were terminated by vacuum filtration over 0.1% PEI pretreated glass fiber filters and filters were washed for 10 s with ice cold 0.1M NaCl and radioactivity retained on the filters was determined by liquid scintillation spectrometry. IC50 values were determined by a non-linear regression analysis using GraphPad Prism v.5 (GraphPad)."}, "EphA2 [2]": {"target": "T3, EphA2 (Homo sapiens, UniProt P29317)", "T3 sequence (P29317 24-976)": "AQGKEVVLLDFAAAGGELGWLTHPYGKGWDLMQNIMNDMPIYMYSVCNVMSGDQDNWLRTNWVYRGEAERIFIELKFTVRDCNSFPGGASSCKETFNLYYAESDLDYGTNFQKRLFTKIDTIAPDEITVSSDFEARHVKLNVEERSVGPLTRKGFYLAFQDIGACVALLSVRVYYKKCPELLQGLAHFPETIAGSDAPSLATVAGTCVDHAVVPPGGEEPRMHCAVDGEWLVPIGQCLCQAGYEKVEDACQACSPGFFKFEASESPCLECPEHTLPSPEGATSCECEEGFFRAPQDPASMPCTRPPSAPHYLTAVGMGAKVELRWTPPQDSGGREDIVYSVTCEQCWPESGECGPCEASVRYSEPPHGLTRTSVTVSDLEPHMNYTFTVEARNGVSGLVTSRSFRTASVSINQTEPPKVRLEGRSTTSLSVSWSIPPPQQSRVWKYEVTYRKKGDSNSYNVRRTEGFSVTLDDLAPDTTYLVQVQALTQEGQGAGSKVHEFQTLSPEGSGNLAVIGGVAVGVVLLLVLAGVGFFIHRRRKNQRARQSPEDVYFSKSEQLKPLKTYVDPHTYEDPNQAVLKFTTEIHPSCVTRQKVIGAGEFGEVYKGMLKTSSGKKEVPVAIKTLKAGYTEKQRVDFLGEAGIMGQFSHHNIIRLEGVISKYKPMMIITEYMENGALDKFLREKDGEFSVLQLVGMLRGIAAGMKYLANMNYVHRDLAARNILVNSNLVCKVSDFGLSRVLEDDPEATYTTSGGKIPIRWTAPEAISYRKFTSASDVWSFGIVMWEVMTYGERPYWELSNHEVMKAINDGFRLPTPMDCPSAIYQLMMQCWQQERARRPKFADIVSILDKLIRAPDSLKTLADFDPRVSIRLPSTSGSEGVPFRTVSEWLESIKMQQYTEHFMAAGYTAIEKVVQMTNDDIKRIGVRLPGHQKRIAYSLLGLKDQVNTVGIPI", "test": "EphA2 activation in HEK 293-A2 cells (pEphA/B immunoblot)", "type": "cell-based", "set-up": "expressed in transfected cells", "method": "(§1) Cells were plated in 24-well dishes at a density of 100,000 cells/well and grown for 24 hours prior to stimulation with appropriate compounds and ephrins for the given amounts of time. Compounds were prepared in DMSO at 500 times the final concentrations and 0.2% DMSO was used as vehicle control. Following treatment, cells were lysed directly in SDS Gel Loading Buffer and immunoblotted as described previously. Immunoprecipitation and immunofluorescence staining was performed as described. For immunoprecipitation, 300,000 cells/well were plated in 6-well dishes and lysed in modified RIPA Buffer (20 mM Tris-HCl pH 7.4, 20 mM NaF, 150 mM NaCl, 10% glycerol, 0.1% SDS, 0.5% DCA, 2 mM EDTA, 1% Triton X-100) following treatment. Either 10 μg of ephrin-A1-Fc, or […] of EphA2 mouse monoclonal antibody (Clone D7, Millipore) were used, and mouse IgG was used as a negative control for EphA2 IP.\nTo determine whether the EphA2 agonist activity of doxazosin is cell-context specific, we evaluated the effects of doxazosin on additional cell types. We first utilized HEK 293 cells overexpressing EphA2 (HEK 293-A2) that we described previously. […] Next we tested PC-3 cells that express high levels of endogenous EphA2 receptor. […] We next evaluated the time-course of activation in both MDA-231-A2 and HEK 293-A2 cells upon treatment with a single 50 μM dose of doxazosin."}, "EphA2 [3]": {"target": "T3, EphA2", "test": "EphA2 activation in A172-A2 glioma cells", "type": "cell-based", "set-up": "expressed in transfected cells", "method": "as §1\nActivation of EphA2 receptor by ephrin-A1 ligand inhibits both ERK1/2 and Akt kinase activities in most normal cells and a subset of cancer cells. […] We first tested this by utilizing the A172 glioma cells engineered to overexpress EphA2 receptor (A172-A2)."}},
  "data": [
    {"compound": "COc1cc2nc(N3CCN(C(=O)C4COc5ccccc5O4)CC3)nc(N)c2cc1OC", "note": "(centres unmarked) [Doxazosin, 2-[4-(2,3-Dihydro-1,4-benzodioxine-2-carbonyl)piperazin-1-yl]-6,7-dimethoxyquinazolin-4-amine]", "values": [
      {"measurement": "endogenous EphB4 activation", "setting": "endogenous EphB4", "result": "endogenous EphB4 was not activated"},
      {"measurement": "haptotactic cell migration toward fibronectin", "setting": "PC3-DAB2IP KD cells", "result": "dose-dependent inhibition of cell migration"},
      {"measurement": "IC50", "setting": "[1]", "result": "740 ± 300", "unit": "pM"},
      {"measurement": "concentration at which EphA2 activation starts", "setting": "EphA2 [2]; HEK 293-A2 cells, 30 minutes", "result": 25, "unit": "µM"},
      {"measurement": "time at which EphA2 activation becomes evident", "setting": "EphA2 [2]; HEK 293-A2 cells, single 50 μM dose", "result": 10, "unit": "min"},
      {"measurement": "EphA2 kinase activation", "setting": "EphA2 [2]; HEK 293 overexpressing EphA2, 60 minutes", "result": "activated both EphA2 and EphA4 kinases following a similar dose-response relationship"},
      {"measurement": "concentration at which EphA2 activation starts", "setting": "EphA2 [3]; A172-A2 cells, 90 minutes", "result": "around 25 μM"},
      {"measurement": "EphA2 degradation", "setting": "EphA2 [3]; A172 cells", "result": "degradation of EphA2 following doxazosin treatment"}
    ]}
  ]
}
